Measured values from patent US10287301B2 (Achillion Pharmaceuticals, Inc., priority 2015, dated 2019).

Each compound was assayed against Human Factor D (Homo sapiens (Human), UniProt P00746) (assay: Human Factor D Assay). Conditions: Human Factor D assay of Example 8; Table 2; read-out: IC50.
Chain of Human Factor D (P00746 26-253): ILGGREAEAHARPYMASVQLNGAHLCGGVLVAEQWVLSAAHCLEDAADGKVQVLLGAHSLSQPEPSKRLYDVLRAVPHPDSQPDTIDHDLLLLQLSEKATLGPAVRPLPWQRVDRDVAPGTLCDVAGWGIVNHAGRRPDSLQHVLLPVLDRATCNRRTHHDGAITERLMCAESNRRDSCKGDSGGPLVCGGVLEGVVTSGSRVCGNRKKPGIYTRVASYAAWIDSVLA
Type: biochemical
Method in brief: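 Serum-purified human Factor D (80 nM final) was preincubated with test compound at various concentrations for 5 min at room temperature in 50 mM Tris, 1M NaCl, pH 7.5. Z-L-Lys-SBzl and DTNB were then added at 100 μM each. IC50 came from nonlinear regression of reaction rates versus compound concentration.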
Work on `COc1cccc(NC(=O)[C@@H]2C[C@@H](F)CN2C(=O)Cn2nc(C(C)=O)c3cc(-c4cnc5cc(C)nn5c4)ccc32)c1F` [Compound 275, (2S,4R)-1-(2-(3-acetyl-5-(2-methylpyrazolo[1,5-a]pyrimidin-6-yl)-1H-indazol-1-yl)acetyl)-4-fluoro-N-(2-fluoro-3-methoxyphenyl) pyrrolidine-2-carboxamide] yielded an IC50 of less than 1 µM.
For `CC(=O)c1cn(CC(=O)N2C[C@H](F)C[C@H]2C(=O)Nc2cccc(OC(F)(F)F)c2F)c2ccc(-c3cnc4cc(C)nn4c3)cc12` [Compound 276, (2S,4R)-1-(2-(3-acetyl-5-(2-methylpyrazolo[1,5-a]pyrimidin-6-yl)-1H-indol-1-yl)acetyl)-4-fluoro-N-(2-fluoro-3-(trifluoromethoxy)phenyl)pyrrolidine-2-carboxamide], the IC50 was less than 1 µM.
Work on `CC(=O)c1cn(CC(=O)N2C[C@H](F)C[C@H]2C(=O)Nc2cccc(Br)n2)c2ccc(-c3cnc4cc(C)nn4c3)cc12` [Compound 277, (2S,4R)-1-(2-(3-acetyl-5-(2-methylpyrazolo[1,5-a]pyrimidin-6-yl)-1H-indol-1-yl)acetyl)-N-(6-bromopyridin-2-yl)-4-fluoropyrrolidine-2-carboxamide] yielded an IC50 of less than 1 µM.
For `Cc1ncc(-c2cc3c(C(N)=O)nn(CC(=O)N4C[C@H](F)C[C@H]4C(=O)Nc4cccc(Br)n4)c3cn2)cn1` [Compound 278, 1-(2-((2S,4R)-2-(6-bromopyridin-2-ylcarbamoyl)-4-fluoropyrrolidin-1-yl)-2-oxoethyl)-5-(2-methylpyrimidin-5-yl)-1H-pyrazolo[3,4-c]pyridine-3-carboxamide], the IC50 was less than 1 µM.
With `C=CCCCCCCCCCNc1ncc(-c2ccc3c(c2)c(C(C)=O)nn3CC(=O)N2C[C@H](F)C[C@H]2C(=O)NCc2cc(C=C)cc(Cl)c2F)cn1` [Compound 279, (2S,4R)-1-(2-(3-acetyl-5-(2-(undec-10-enylamino)pyrimidin-5-yl)-1H-indazol-1-yl)acetyl)-N-(3-chloro-2-fluoro-5-vinylbenzyl)-4-fluoropyrrolidine-2-carboxamide] the IC50 was greater than 10 µM.
`CC(=O)c1nn(CC(=O)N2C[C@H](F)C[C@H]2C(=O)Nc2cccc(OC(F)F)c2F)c2ccc(-c3cnc4cc(C)nn4c3)cc12` [Compound 281, (2S,4R)-1-(2-(3-acetyl-5-(2-methylpyrazolo[1,5-a]pyrimidin-6-yl)-1H-indazol-1-yl)acetyl)-N-(3-(difluoromethoxy)-2-fluorophenyl)-4-fluoropyrrolidine-2-carboxamide] gave an IC50 of less than 1 µM.
`CC(=O)c1nn(CC(=O)N2C[C@H](F)C[C@H]2C(=O)Nc2cccc(OC(F)F)c2F)c2ccc(-c3cnc4ccnn4c3)cc12` [Compound 282, (2S,4R)-1-(2-(3-acetyl-5-(pyrazolo[1,5-a]pyrimidin-6-yl)-1H-indazol-1-yl)acetyl)-N-(3-(difluoromethoxy)-2-fluorophenyl)-4-fluoropyrrolidine-2-carboxamide] gave an IC50 of less than 1 µM.
`Cc1cc2ncc(-c3cc4c(C(N)=O)nn(CC(=O)N5C[C@H](F)C[C@H]5C(=O)Nc5cccc(OC(F)(F)F)c5F)c4cn3)cn2n1` [Compound 283, 1-(2-((2S,4R)-4-fluoro-2-(2-fluoro-3-(trifluoromethoxy)phenylcarbamoyl)pyrrolidin-1-yl)-2-oxoethyl)-5-(2-methylpyrazolo[1,5-a]pyrimidin-6-yl)-1H-pyrazolo[3,4-c]pyridine-3-carboxamide] showed an IC50 of less than 1 µM.
`Cc1cc2ncc(-c3ccc4c(c3)c(C(N)=O)nn4CC(=O)N3C[C@H](F)C[C@H]3C(=O)Nc3cccc(Br)n3)cn2n1` [Compound 284, 1-(2-((2S,4R)-2-(6-bromopyridin-2-ylcarbamoyl)-4-fluoropyrrolidin-1-yl)-2-oxoethyl)-5-(2-methylpyrazolo[1,5-a]pyrimidin-6-yl)-1H-indazole-3-carboxamide] was tested, and the IC50 was less than 1 µM.
In the case of `CC(=O)c1nn(CC(=O)N2CC=C[C@H]2C(=O)Nc2cccc(-c3ccccc3Cl)c2F)c2ccc(-c3cnc(C)nc3)cc12` [Compound 286, (S)-1-(2-(3-acetyl-5-(2-methylpyrimidin-5-yl)-1H-indazol-1-yl)acetyl)-N-(2′-chloro-2-fluorobiphenyl-3-yl)-2,5-dihydro-1H-pyrrole-2-carboxamide], the IC50 is reported as less than 1 µM.
With `CCOC(=O)c1cc2ncc(-c3ccc4c(c3)c(C(C)=O)nn4CC(=O)N3C[C@H](F)C[C@H]3C(=O)Nc3cccc(Br)n3)cn2n1` [Compound 287, ethyl 6-(3-acetyl-1-(2-((2S,4R)-2-(6-bromopyridin-2-ylcarbamoyl)-4-fluoropyrrolidin-1-yl)-2-oxoethyl)-1H-indazol-5-yl)pyrazolo[1,5-a]pyrimidine-2-carboxylate] the IC50 was less than 1 µM.
For `CC(=O)c1nn(CC(=O)N2C[C@H](F)C[C@H]2C(=O)Nc2cccc(Br)n2)c2ccc(-c3cnc4cc(C(N)=O)nn4c3)cc12` [Compound 288, 6-(3-Acetyl-1-(2-((2S,4R)-2-((6-Bromopyridin-2-yl)carbamoyl)-4-fluoropyrrolidin-1-yl)-2-oxoethyl)-1H-indazol-5-yl)pyrazolo[1,5-a]pyrimidine-2-carboxamide], the IC50 was less than 1 µM.
With `CC(=O)c1nn(CC(=O)N2C[C@H](F)C[C@H]2C(=O)Nc2cccc(Br)n2)c2ccc(-c3cnc4cc(C(=O)O)nn4c3)cc12` [Compound 289, 6-(3-acetyl-1-(2-((2S,4R)-2-(6-bromopyridin-2-ylcarbamoyl)-4-fluoropyrrolidin-1-yl)-2-oxoethyl)-1H-indazol-5-yl)pyrazolo[1,5-a]pyrimidine-2-carboxylic acid] the IC50 was less than 1 µM.
Work on `COCCOCCNC(=O)c1cc2ncc(-c3ccc4c(c3)c(C(C)=O)nn4CC(=O)N3C[C@H](F)C[C@H]3C(=O)Nc3cccc(Br)n3)cn2n1` [Compound 290, 6-(3-acetyl-1-(2-((2S,4R)-2-(6-bromopyridin-2-ylcarbamoyl)-4-fluoropyrrolidin-1-yl)-2-oxoethyl)-1H-indazol-5-yl)-N-(2-(2-methoxyethoxy)ethyl)pyrazolo[1,5-a]pyrimidine-2-carboxamide] yielded an IC50 of less than 1 µM.
Compound `CC(=O)c1nn(CC(=O)N2C[C@H](F)C[C@H]2C(=O)Nc2cccc(Br)n2)c2ccc(-c3n[nH]c4ccsc34)cc12` [Compound 291, (2S,4R)-1-(2-(3-Acetyl-5-(1H-thieno[3,2-c]pyrazol-3-yl)-1H-indazol-1-yl)acetyl)-N-(6-bromopyridin-2-yl)-4-fluoropyrrolidine-2-carboxamide] has an IC50 of less than 1 µM.
`CC(=O)n1cc(NC(=O)N2C[C@H](F)C[C@H]2C(=O)Nc2cccc(Br)n2)c2ccc(-c3cnc(C)nc3)cc21` [Compound 292, (2S,4R)-N1-(1-acetyl-6-(2-methylpyrimidin-5-yl)-1H-indol-3-yl)-N2-(6-bromopyridin-2-yl)-4-fluoropyrrolidine-1,2-dicarboxamide] was tested, and the IC50 was less than 1 µM.
Compound `CC(=O)n1cc(NC(=O)N2C[C@H](F)C[C@H]2C(=O)Nc2cccc(-c3ccccc3Cl)c2F)c2ccc(-c3cnc(C)nc3)cc21` [Compound 293] has an IC50 of less than 1 µM.
`CC(=O)c1nn(CC(=O)N2CC=C[C@H]2C(=O)Nc2cccc(Br)n2)c2ccc(-c3cnc(C)nc3)cc12` [Compound 294, (S)-1-(2-(3-acetyl-5-(2-methylpyrimidin-5-yl)-1H-indazol-1-yl)acetyl)-N-(6-bromopyridin-2-yl)-2,5-dihydro-1H-pyrrole-2-carboxamide] was tested, and the IC50 was less than 1 µM.
`CC(=O)c1nn(CC(=O)N2C[C@H](F)C[C@H]2C(=O)Nc2cccc(-c3cccc(S(C)(=O)=O)c3)c2F)c2ccc(-c3cnc(C)nc3)cc12` [Compound 295, (2S,4R)-1-(2-(3-Acetyl-5-(2-methylpyrimidin-5-yl)-1H-indazol-1-yl)acetyl)-4-fluoro-N-(2-fluoro-3′-(methylsulfonyl)-[1,1′-biphenyl]-3-yl)pyrrolidine-2-carboxamide] was tested, and the IC50 was less than 1 µM.
`CC(=O)c1nn(CC(=O)N2C[C@H](F)C[C@H]2C(=O)Nc2cccc(-c3ccccc3Cl)c2F)c2ccc(-c3cnc4cc(C)nn4c3)cc12` [Compound 296, (2S,4R)-1-(2-(3-acetyl-5-(2-methylpyrazolo[1,5-a]pyrimidin-6-yl)-1H-indazol-1-yl)acetyl)-N-(2′-chloro-2-fluorobiphenyl-3-yl)-4-fluoropyrrolidine-2-carboxamide] showed an IC50 of less than 1 µM.
In the case of `CC(=O)c1nn(CC(=O)N2C[C@H](F)C[C@H]2C(=O)Nc2cccc(Br)n2)c2ccc(-c3nc4c(s3)CCCC4)cc12` [Compound 297], the IC50 is reported as greater than 10 µM.
Compound `CC(=O)c1cn(CC(=O)N2[C@@H]3C[C@@H]3C[C@H]2C(=O)Nc2cccc(Br)n2)c2ccc(-c3cnc4cc(C)nn4c3)cc12` [Compound 298, (1R,3S,5R)-2-(2-(3-acetyl-5-(2-methylpyrazolo[1,5-a]pyrimidin-6-yl)-1H-indol-1-yl)acetyl)-N-(6-bromopyridin-2-yl)-2-azabicyclo[3.1.0] hexane-3-carboxamide] has an IC50 of less than 1 µM.
`CC(=O)c1cn(CC(=O)N2C[C@H](F)C[C@H]2C(=O)NCc2cccc(Cl)c2F)c2ccc(-c3cnc4cc(C)nn4c3)cc12` [Compound 299, (2S,4R)-1-(2-(3-acetyl-5-(2-methylpyrazolo[1,5-a]pyrimidin-6-yl)-1H-indol-1-yl)acetyl)-N-(3-chloro-2-fluorobenzyl)-4-fluoropyrrolidine-2-carboxamide] gave an IC50 of less than 1 µM.
`CC(=O)c1cn(CC(=O)N2C[C@H](F)C[C@H]2C(=O)Nc2cccc(-c3ccccc3Cl)c2F)c2ccc(-c3cnc4cc(C)nn4c3)cc12` [Compound 300, (2S,4R)-1-(2-(3-acetyl-5-(2-methylpyrazolo[1,5-a]pyrimidin-6-yl)-1H-indol-1-yl)acetyl)-N-(2′-chloro-2-fluorobiphenyl-3-yl)-4-fluoropyrrolidine-2-carboxamide] was tested, and the IC50 was less than 1 µM.
`CC(=O)c1cn(CC(=O)N2C[C@H](F)C[C@H]2C(=O)Nc2cccc(C(F)(F)F)n2)c2ccc(-c3cnc4cc(C)nn4c3)cc12` [Compound 301, (2S,4R)-1-(2-(3-acetyl-5-(2-methylpyrazolo[1,5-a]pyrimidin-6-yl)-1H-indol-1-yl)acetyl)-4-fluoro-N-(6-(trifluoromethyl)pyridin-2-yl)pyrrolidine-2-carboxamide] showed an IC50 of less than 1 µM.
